Data from patent publication US20200262877A1, “ION CHANNEL-BINDING PEPTIDES AND METHODS OF USE THEREOF” (priority 2017, published 2020).
Like-named read-outs stand apart in the source and are kept apart here. Where a SMILES comes first, the peptide text is derived from it. Bridges are numbered along the chain shown (N, C = ends). Where no end group is shown, it is not given here.

Legend:
[1] = target: T1, Nav1.5 cardiac sodium channel (human SCN5A gene) (Homo sapiens, UniProt Q14524); assay: cell-based
[2] = target: Nav1.7 sodium channel (human SCN9A gene) (Homo sapiens, UniProt Q15858); assay: cell-based; design: expressed in transfected cells; host or cells: CHO cells; details: human Nav1.7 in CHO cells
[3] = target: Nav1.4 sodium channel (human SCN4A gene) (Homo sapiens, UniProt P35499); assay: cell-based; design: host or cells: CHO; details: human Nav1.4 in CHO cells
[4] = target: T1, Nav1.5 cardiac sodium channel (human SCN5A gene); details: read-out: IC50 Nav1.5 ion channel inhibition, TP2; human Nav1.5 in CHO cells; TP2 (inactivated state inhibition)
[5] = target: Nav1.3 sodium channel (human SCN3A gene) (Homo sapiens, UniProt Q9NY46); assay: cell-based; design: host or cells: CHO
[6] = target: Kv1.5 potassium channel (human KCNA5 gene) (Homo sapiens, UniProt P22460); assay: cell-based; design: host or cells: CHO; details: human Kv1.5 in CHO cells
[7] = target: Kv1.3 potassium channel (human KCNA3 gene) (Homo sapiens, UniProt P22001); assay: cell-based; design: host or cells: CHO; details: human Kv1.3 in CHO cells
Kv1.2 = target: T2, Kv1.2 (Homo sapiens, UniProt P16389); assay: cell-based; assay type: cell-based; details: Kv1.2, percentage of control, 100% = no change, read-out: Ion channel activity (ion channel inhibition); for activity at 20 µM: peptide at 20 μM
T2 construct: host or cells: HEK293 or CHO
Method in brief: (§1)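 Peptides were tested in duplicate at final 20 μM and 200 nM, with concentration set by amino acid analysis, in HEPES-buffered saline. They were applied for at least 5 min to HEK293 or CHO cells transfected with each channel. Currents were expressed as % inhibition, 1-(Ipeptide/Icontrol)×100, or % activation, Ipeptide/Icontrol×100, against a channel-matched reference compound.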

panel of 20 ion channels = assay type: cell-based
Method: This example describes a method for assaying ion channel activity in cells.
Peptides were screened in duplicate at final concentrations of 20 μM and 200 nM, as determined by amino acid analysis, and diluted into HEPES buffered physiological saline (HBPS). HEK293 or CHO cells from the American Type Culture Collection (ATCC) were transfected with the appropriate ion channel before use. HEK293 cells were grown in Dulbecco's Modified Eagle Medium/Nutrient Mixture F-12, and CHO cells were cultured in Ham's F-12 media. All cultures were supplemented with 10% fetal bovine serum, 100 U/ml penicillin G, 100 μg/ml streptomycin sulfate, and the appropriate selection antibiotics. Prior to use, cells were washed twice with Hank's Balanced Salt Solution, and treated with Accutase cell detachment solution (Sigma-Aldrich). Cells were then washed. Peptides and controls were incubated with cells for at least five minutes.
Percent inhibition was defined as: (1-(Ipeptide/Icontrol))×100%).
Percent values were calculated using the following formula: % activation=(IPeptide/Icontrol)×100%, where IPeptide is the current produced by co-application a peptide with agonist, and Icontrol refers to the current produced by stimulation in control. Control used for each ion channel is the reference compound matched to a particular channel, as illustrated in TABLE 10 below.

hERG [8] = target: T3, hERG (Homo sapiens, UniProt Q12809); details: cited from earlier work
hERG [9] = target: T3, hERG; assay: in vitro; details: for activity at 20 µM: human
Method in brief: as §1

[10] = system: calcium channels (ryanodine receptors); details: prior reports; cited from earlier work
Nav1.7 = target: T4, Nav1.7 (Homo sapiens, UniProt Q15858); assay: cell-based; assay type: cell-based; details: read-out: Ion channel activity (ion channel inhibition)
T4 construct: host or cells: HEK293 or CHO

Cav2.1 = target: T5, Cav2.1 (Homo sapiens, UniProt O00555); assay: cell-based; details: read-out: Ion channel activity (ion channel inhibition)
T5 construct: host or cells: HEK293 or CHO
Method in brief: as §1

Cav2.2 = target: T6, Cav2.2 (Homo sapiens, UniProt Q00975); assay: cell-based; details: read-out: Ion channel activity (ion channel inhibition)
T6 construct: host or cells: HEK293 or CHO
Method in brief: as §1

Nav1.5 = Nav1.5 (Homo sapiens, UniProt Q14524); assay: in vitro
Method in brief: as §1

Kv1.3 = target: T7, Kv1.3 (Homo sapiens, UniProt P22001); assay: cell-based; assay type: cell-based; details: Kv1.3; peptide at 20 μM; percentage of control, 100% = no change; read-out: Ion channel activity (ion channel inhibition)
T7 construct: host or cells: HEK293 or CHO
Method in brief: as §1

T3 sequence (Q12809 whole entry): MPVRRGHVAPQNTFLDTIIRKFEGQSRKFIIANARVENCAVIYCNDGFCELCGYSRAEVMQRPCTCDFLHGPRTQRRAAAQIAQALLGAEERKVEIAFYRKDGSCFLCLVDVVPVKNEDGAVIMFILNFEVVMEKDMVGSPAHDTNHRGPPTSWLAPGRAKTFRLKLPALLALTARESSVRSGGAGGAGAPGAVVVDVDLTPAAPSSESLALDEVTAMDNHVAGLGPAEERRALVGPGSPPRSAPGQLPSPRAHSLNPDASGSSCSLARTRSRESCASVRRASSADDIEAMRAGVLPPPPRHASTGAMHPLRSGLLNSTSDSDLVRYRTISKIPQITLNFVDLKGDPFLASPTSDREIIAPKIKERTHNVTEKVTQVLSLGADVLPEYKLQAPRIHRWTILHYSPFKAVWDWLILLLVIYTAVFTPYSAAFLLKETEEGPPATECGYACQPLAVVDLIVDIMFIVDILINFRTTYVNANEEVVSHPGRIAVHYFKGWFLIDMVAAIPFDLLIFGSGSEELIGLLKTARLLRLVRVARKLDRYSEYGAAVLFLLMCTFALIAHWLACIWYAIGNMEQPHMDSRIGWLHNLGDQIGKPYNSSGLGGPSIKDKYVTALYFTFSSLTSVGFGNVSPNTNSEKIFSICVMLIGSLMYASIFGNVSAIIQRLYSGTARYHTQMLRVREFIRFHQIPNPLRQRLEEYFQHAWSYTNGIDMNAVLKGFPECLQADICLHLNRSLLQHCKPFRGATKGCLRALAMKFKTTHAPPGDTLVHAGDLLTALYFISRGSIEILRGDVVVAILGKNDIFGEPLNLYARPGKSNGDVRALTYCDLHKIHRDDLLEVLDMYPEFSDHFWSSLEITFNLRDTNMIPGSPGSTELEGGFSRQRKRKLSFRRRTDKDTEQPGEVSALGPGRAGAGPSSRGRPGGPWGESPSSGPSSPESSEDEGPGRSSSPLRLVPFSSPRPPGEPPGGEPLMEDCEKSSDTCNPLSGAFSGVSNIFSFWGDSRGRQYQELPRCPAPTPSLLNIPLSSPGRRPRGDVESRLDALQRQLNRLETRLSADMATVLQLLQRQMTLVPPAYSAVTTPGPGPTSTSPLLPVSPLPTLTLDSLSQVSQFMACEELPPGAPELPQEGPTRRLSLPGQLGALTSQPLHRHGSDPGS
Sequence of Nav1.3 sodium channel (human SCN3A gene) (Q9NY46 whole entry): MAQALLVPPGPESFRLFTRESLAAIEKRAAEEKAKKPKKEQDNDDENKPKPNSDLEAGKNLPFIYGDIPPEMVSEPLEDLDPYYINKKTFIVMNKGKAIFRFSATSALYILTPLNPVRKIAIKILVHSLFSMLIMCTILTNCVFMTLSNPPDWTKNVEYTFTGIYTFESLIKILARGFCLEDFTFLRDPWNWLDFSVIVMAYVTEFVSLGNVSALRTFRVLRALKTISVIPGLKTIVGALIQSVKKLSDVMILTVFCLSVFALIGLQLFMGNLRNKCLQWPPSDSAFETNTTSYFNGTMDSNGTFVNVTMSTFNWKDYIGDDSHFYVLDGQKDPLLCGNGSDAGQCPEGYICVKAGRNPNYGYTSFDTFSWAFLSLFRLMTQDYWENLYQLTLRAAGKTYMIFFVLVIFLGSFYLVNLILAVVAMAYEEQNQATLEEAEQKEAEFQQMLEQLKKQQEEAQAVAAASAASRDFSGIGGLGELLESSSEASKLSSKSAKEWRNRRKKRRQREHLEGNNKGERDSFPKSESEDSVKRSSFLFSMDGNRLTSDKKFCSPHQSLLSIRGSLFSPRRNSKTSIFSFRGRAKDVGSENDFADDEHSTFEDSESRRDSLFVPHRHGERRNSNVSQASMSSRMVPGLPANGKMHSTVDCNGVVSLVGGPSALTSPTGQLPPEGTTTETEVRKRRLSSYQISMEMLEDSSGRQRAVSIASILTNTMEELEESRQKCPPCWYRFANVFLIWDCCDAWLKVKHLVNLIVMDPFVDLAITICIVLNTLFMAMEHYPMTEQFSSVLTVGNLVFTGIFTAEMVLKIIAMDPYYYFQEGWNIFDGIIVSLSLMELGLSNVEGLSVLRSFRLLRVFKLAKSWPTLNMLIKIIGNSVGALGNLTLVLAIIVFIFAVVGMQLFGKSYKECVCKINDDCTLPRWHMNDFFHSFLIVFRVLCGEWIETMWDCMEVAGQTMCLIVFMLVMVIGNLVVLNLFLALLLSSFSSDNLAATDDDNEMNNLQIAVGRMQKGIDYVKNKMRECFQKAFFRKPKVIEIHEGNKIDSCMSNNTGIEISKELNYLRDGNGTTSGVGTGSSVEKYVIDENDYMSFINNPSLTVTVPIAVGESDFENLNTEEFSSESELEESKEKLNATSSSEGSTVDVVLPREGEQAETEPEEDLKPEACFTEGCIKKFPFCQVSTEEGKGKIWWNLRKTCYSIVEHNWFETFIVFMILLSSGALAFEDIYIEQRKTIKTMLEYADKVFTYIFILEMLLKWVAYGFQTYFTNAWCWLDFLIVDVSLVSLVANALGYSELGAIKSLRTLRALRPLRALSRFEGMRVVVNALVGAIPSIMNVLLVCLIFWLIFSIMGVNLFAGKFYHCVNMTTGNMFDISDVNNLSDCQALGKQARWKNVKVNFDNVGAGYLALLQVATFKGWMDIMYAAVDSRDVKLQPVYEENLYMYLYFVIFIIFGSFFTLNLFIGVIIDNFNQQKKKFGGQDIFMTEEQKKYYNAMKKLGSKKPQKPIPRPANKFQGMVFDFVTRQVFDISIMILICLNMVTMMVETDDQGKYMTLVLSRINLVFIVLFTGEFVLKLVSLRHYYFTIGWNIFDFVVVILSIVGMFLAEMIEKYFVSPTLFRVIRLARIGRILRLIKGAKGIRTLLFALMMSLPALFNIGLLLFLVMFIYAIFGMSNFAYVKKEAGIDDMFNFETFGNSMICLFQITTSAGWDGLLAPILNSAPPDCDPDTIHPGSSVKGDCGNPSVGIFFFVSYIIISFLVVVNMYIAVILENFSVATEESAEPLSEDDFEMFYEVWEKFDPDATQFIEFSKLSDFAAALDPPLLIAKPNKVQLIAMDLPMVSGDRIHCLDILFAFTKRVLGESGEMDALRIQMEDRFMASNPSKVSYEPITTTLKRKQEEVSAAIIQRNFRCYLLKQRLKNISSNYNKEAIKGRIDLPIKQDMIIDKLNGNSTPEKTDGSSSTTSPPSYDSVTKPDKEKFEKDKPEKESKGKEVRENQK
T2 sequence (P16389 whole entry): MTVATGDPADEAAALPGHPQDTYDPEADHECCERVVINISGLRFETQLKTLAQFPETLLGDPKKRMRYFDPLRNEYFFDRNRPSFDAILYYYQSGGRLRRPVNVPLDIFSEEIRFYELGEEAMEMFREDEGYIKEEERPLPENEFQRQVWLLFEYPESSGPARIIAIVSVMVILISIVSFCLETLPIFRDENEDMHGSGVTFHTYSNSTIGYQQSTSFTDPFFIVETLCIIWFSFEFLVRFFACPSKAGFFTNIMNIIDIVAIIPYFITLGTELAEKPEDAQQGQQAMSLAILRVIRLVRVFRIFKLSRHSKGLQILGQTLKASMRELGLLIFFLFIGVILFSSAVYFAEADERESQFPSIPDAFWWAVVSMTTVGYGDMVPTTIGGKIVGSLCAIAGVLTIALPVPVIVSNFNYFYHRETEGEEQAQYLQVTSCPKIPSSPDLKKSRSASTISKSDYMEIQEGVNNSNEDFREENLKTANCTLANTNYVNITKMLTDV
Sequence of Kv1.3 potassium channel (human KCNA3 gene) (P22001 whole entry): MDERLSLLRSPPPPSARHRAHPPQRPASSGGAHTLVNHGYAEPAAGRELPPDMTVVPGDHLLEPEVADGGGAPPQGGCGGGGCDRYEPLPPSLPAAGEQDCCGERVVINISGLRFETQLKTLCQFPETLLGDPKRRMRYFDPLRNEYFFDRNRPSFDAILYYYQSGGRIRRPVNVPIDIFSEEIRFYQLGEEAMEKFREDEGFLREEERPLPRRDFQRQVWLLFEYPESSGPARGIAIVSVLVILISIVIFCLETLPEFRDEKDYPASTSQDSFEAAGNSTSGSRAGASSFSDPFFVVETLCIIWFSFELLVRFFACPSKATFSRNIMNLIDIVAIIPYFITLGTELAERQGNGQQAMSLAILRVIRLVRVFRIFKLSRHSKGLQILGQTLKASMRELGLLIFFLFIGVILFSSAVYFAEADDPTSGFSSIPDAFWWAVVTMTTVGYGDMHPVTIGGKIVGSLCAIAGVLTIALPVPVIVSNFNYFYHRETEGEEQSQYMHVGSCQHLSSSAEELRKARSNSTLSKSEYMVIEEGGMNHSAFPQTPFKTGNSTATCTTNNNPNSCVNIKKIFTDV
Sequence of Kv1.5 potassium channel (human KCNA5 gene) (P22460 whole entry): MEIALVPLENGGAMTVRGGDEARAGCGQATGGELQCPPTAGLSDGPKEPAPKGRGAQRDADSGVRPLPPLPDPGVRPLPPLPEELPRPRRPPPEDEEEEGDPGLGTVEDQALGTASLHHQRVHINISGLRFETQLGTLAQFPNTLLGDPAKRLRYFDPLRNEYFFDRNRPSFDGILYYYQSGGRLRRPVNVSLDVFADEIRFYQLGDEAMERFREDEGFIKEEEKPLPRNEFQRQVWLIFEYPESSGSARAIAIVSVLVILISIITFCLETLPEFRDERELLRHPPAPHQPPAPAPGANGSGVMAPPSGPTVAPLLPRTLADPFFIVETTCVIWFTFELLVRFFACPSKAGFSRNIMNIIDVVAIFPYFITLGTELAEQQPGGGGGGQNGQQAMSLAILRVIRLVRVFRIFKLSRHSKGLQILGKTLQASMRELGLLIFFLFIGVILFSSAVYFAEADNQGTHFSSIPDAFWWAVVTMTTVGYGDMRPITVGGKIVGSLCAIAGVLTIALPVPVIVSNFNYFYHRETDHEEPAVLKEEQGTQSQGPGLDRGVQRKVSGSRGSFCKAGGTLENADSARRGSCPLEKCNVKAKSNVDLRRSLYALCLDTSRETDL
T7 sequence (P22001 whole entry): as the sequence (P22001 whole entry) above

Molecule: CC[C@H](C)[C@@H]1NC(=O)[C@H](CCC(=O)O)NC(=O)[C@H](CCCNC(=N)N)NC(=O)[C@H](CCCNC(=N)N)NC(=O)[C@@H]2CSSC[C@@H](C(=O)N[C@@H](Cc3ccc(O)cc3)C(=O)N[C@@H](CCCNC(=N)N)C(=O)N[C@@H](CC(N)=O)C(=O)O)NC(=O)[C@H](C(C)C)NC(=O)[C@@H]3CSSC[C@H](NC(=O)[C@H](CO)NC(=O)CNC(=O)CNC(=O)[C@H](CCC(N)=O)NC(=O)[C@@H](NC(=O)[C@H](CCCCN)NC(=O)[C@@H](NC(=O)[C@H](CC(N)=O)NC(=O)[C@@H](NC(=O)[C@H](CCC(N)=O)NC(=O)[C@@H](NC(=O)[C@H](CCC(N)=O)NC(=O)[C@H](CO)NC(=O)CN)C(C)C)[C@@H](C)O)C(C)C)CSSC[C@H](NC(=O)[C@H](CCCCN)NC(=O)CNC(=O)[C@H](C)NC(=O)[C@H](C)NC(=O)[C@H](C(C)C)NC(=O)CNC1=O)C(=O)N[C@@H]([C@@H](C)CC)C(=O)N[C@@H](CC(N)=O)C(=O)NCC(=O)N[C@@H](CCCCN)C(=O)N3)C(=O)N[C@@H](C)C(=O)N[C@@H](CO)C(=O)N[C@@H](C(C)C)C(=O)N2 [SEQ ID NO: 10] (H-GSQVQTNVKCQGGSCASVCRREIGVAAGKCINGKCVCYRN-OH; disulfide 10-30, 15-35, 19-37)
- IC50 [1]: > 1 µM
- IC50 ([2]; TP1 (tonic inhibition), read-out: IC50 Nav1.7 ion channel inhibition, TP1): > 1 µM
- IC50 ([2]; TP2 (inactivated state inhibition), read-out: IC50 Nav1.7 ion channel inhibition, TP2): > 1 µM
- IC50 ([3]; TP1 (tonic inhibition), read-out: IC50 Nav1.4 ion channel inhibition, TP1): > 1 µM
- IC50 ([3]; TP2 (inactivated state inhibition), read-out: IC50 Nav1.4 ion channel inhibition, TP2): > 1 µM
- IC50 [4]: > 1 µM
- IC50 ([5]; human Nav1.3 in CHO cells, TP1 (tonic inhibition), read-out: IC50 Nav1.3 ion channel inhibition, TP1): > 1 µM
- IC50 ([5]; human Nav1.3 in CHO cells, TP2 (inactivated state inhibition), read-out: IC50 Nav1.3 ion channel inhibition, TP2): > 1 µM
- IC50 ([6]; test pulse TP1, read-out: IC50 Kv1.5 ion channel inhibition, TP1): > 1 µM
- IC50 ([6]; test pulse TP6, read-out: IC50 Kv1.5 ion channel inhibition, TP6): > 1 µM
- IC50 ([7]; test pulse TP1, read-out: IC50 Kv1.3 ion channel inhibition, TP1): > 1 µM
- IC50 ([7]; test pulse TP6, read-out: IC50 Kv1.3 ion channel inhibition, TP6): > 1 µM

Molecule: GSDRDSCIDKSRCSKYGYYQECQDCCKKAGHNGGTCMFFKCKCA (disulfide 7-25, 13-36, 22-41, 26-43) [SEQ ID NO: 14]
- activity at 0.2 µM (Kv1.2; peptide at 0.2 μM): < 80%
- activity at 20 µM (Kv1.2): < 50%
- Activity on potassium channels (panel of 20 ion channels; potassium channels of the panel, 0.2 or 20 μM, FIG. 2): showed activity against additional potassium channels
- hERG inhibition or binding, previously reported (hERG [8]): previously reported to inhibit hERG channels
- activity at 20 µM (hERG [9]): < 50%

Molecule: GSSEKDCIKHLQRCRENKDCCSKKCSRRGTNPEKRCR [SEQ ID NO: 3]
- Inhibition of calcium channels (ryanodine receptors), reported [10]: reported to inhibit calcium channels (ryanodine receptors)
- Activity against additional potassium channels or serotonin receptors (e.g., 5-HT3a) (panel of 20 ion channels; 0.2 or 20 μM, FIG. 2): showed activity against additional potassium channels or serotonin receptors (e.g., 5-HT3a)

Molecule: CC[C@H](C)[C@@H]1NC(=O)[C@H](CC(N)=O)NC(=O)[C@H](CCCNC(=N)N)NC(=O)[C@@H]2CCCN2C(=O)[C@H](Cc2c[nH]c3ccccc23)NC(=O)[C@H](CCCCN)NC(=O)[C@H](CO)NC(=O)[C@H](CCCCN)NC(=O)[C@@H]2CSSC[C@@H]3NC(=O)[C@H](CCCCN)NC(=O)CNC(=O)[C@H](Cc4c[nH]c5ccccc45)NC(=O)[C@H](Cc4ccccc4)NC(=O)[C@H](CCCNC(=N)N)NC(=O)[C@H](C(C)C)NC(=O)[C@@H](NC(=O)[C@H](CC(=O)O)NC(=O)[C@H](CO)NC(=O)CN)CSSC[C@H](NC(=O)[C@H](CSSC[C@@H](C(=O)N[C@H](C(=O)N[C@@H](Cc4c[nH]c5ccccc45)C(=O)N[C@@H](CC(=O)O)C(=O)NCC(=O)N[C@@H](CO)C(=O)N[C@H](C(=O)NCC(=O)O)C(C)C)C(C)C)NC1=O)NC(=O)[C@H](CC(=O)O)NC(=O)[C@H](CO)NC(=O)[C@H]([C@@H](C)O)NC(=O)[C@H](CCC(N)=O)NC(=O)[C@H](CO)NC3=O)C(=O)N1CCC[C@H]1C(=O)N[C@@H](Cc1c[nH]cn1)C(=O)N[C@@H](CC(C)C)C(=O)N[C@@H](C)C(=O)N2 [SEQ ID NO: 7]
- activity at 20 µM (Nav1.7): < 50%
- activity at 20 µM (Cav2.1): < 50%
- activity at 20 µM (Cav2.2): < 50%
- Inhibition of voltage-sensitive calcium channels (panel of 20 ion channels): inhibited voltage-sensitive calcium channels
- activity at 20 µM (Nav1.5): < 50%
- activity at 20 µM (hERG [9]): < 50%

Molecule: GSGDCLPHLKRCKENNDCCSKKCKRRGANPEKRCR [SEQ ID NO: 11]
- Inhibition of calcium channels (ryanodine receptors), reported [10]: reported to inhibit calcium channels (ryanodine receptors)
- Activity against additional potassium channels or serotonin receptors (e.g., 5-HT3a) (panel of 20 ion channels; 0.2 or 20 μM, FIG. 2): showed activity against additional potassium channels or serotonin receptors (e.g., 5-HT3a)

Molecule: NC1=N[C@H](O)[C@H]2[C@H]3O[C@]4(O)O[C@@H]([C@@H](O)[C@@]2(N1)[C@@H]4O)[C@]3(O)CO [TTX, Tetrodotoxin, reference compound]
- IC50 ([5]; read-out: IC50 Nav1.3 ion channel inhibition, TP1): 0.033 µM
- IC50 ([5]; read-out: IC50 Nav1.3 ion channel inhibition, TP2): 0.028 µM

Molecule: CC[C@H](C)[C@H](NC(=O)[C@H](CC(=O)O)NC(=O)[C@@H](NC(=O)[C@@H]1CCCN1C(=O)[C@H](CCCNC(=N)N)NC(=O)[C@H](CO)NC(=O)CN)[C@@H](C)O)C(=O)N[C@@H](CCCCN)C(=O)N[C@H]1CSSC[C@@H]2NC(=O)[C@H](CCCNC(=N)N)NC(=O)CNC(=O)[C@H](CC(N)=O)NC(=O)[C@H]([C@@H](C)O)NC(=O)[C@H](CCCCN)NC(=O)CNC(=O)[C@H](Cc3ccccc3)NC(=O)[C@H](CCCNC(=N)N)NC(=O)[C@H](CO)NC(=O)[C@H](CCCCN)NC(=O)[C@@H]3CSSC[C@@H](C(=O)N[C@@H](Cc4ccccc4)C(=O)O)NC(=O)[C@H](CC(=O)O)NC(=O)[C@H](CSSC[C@H](NC(=O)[C@H](CCC(N)=O)NC(=O)[C@H](Cc4ccc(O)cc4)NC(=O)[C@H](CO)NC(=O)[C@H](C)NC(=O)[C@H](CO)NC1=O)C(=O)N[C@@H](Cc1ccccc1)C(=O)N1CCC[C@H]1C(=O)N[C@@H](C(C)C)C(=O)N3)NC(=O)[C@H](CC(C)C)NC(=O)CNC(=O)[C@H](CC(N)=O)NC(=O)[C@H](C(C)C)NC2=O [SEQ ID NO: 17] (H-GSRPTDIKCSASYQCFPVCKSRFGKTNGRCVNGLCDCF-OH; disulfide 9-30, 15-35, 19-37)
- activity at 20 µM (Kv1.3): < 50%
- activity at 20 µM (Kv1.2): < 50%
- hERG inhibition or binding, previously reported (hERG [8]): previously been demonstrated to bind to hERG
- Activity against / inhibition of hERG (Kv11.1) (hERG [9]; 0.2 or 20 μM, FIG. 2): confirmed hERG inhibition
- activity at 20 µM (hERG [9]): < 50%
